Patent US6355799B1, “Substituted benzene compounds, process for their preparation, and herbicidal and defoliant compositions containing them” (ISK Americas Incorporated, priority 1997, dated 2002)

Experiments:
Format in all cases: in vivo
[1] = system: lambsquarters (Chenopodium album, CHEAL); experiment: Post-emerge test, greenhouse herbicide activity screening; settings: post-emerge, 14 days after application, rating scale 0-100
Procedure, shortened: (§1)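 Fourteen days after spraying, crop and weed injury was graded visually from 0, no effect, to 100, every plant dead. Test substances were dissolved in acetone and applied at 15–1000 g ai/ha with a flat-fan nozzle. Application was either pre-emergence, one day after sowing, or post-emergence at the 2–3 leaf stage.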

[2] = system: velvetleaf (Abutilon theophrasti, ABUTH); experiment: as above; settings: post-emerge, 14 days after application, rating scale 0-100
Procedure, shortened: as §1

[3] = system: large crabgrass (Digitaria sanguinalis, DIGSA); experiment: as above; settings: post-emerge, 14 days after application, rating scale 0-100
Procedure, shortened: as §1

[4] = system: ivyleaf morningglory (Ipomoea hederacea, IPOHE); experiment: as above; settings: post-emerge, 14 days after application, rating scale 0-100
Procedure, shortened: as §1

[5] = system: redroot pigweed (Amaranthus retroflexus, AMARE); experiment: as above; settings: post-emerge, 14 days after application, rating scale 0-100
Procedure, shortened: as §1

[6] = system: johnsongrass (Sorghum halepense, SORHA); experiment: as above; settings: post-emerge, 14 days after application, rating scale 0-100
Procedure, shortened: as §1

[7] = system: sicklepod (Cassia obtusifolia, CASOB); experiment: as above; settings: post-emerge, 14 days after application, rating scale 0-100
Procedure, shortened: as §1

[8] = system: green foxtail (Setaria viridis, SETVI); experiment: as above; settings: post-emerge, 14 days after application, rating scale 0-100
Procedure, shortened: as §1

[9] = system: barnyardgrass (Echinochloa crus-galli, ECHCG); experiment: as above; settings: post-emerge, 14 days after application, rating scale 0-100
Procedure, shortened: as §1

[10] = system: lambsquarters (Chenopodium album, CHEAL); experiment: Pre-emerge test, greenhouse herbicide activity screening; settings: rated 14 days after application, 0 = no damage, 100 = complete death
Procedure, shortened: (§2)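 Compounds in acetone were track-sprayed at 15–1000 g ai/ha: pre-emergence onto soil sown the previous day, then top-watered to incorporate and later bottom-watered; post-emergence onto 2–3 leaf plants with 0.25% v/v surfactant, bottom-watered only. Ratings on a 0–100 phytotoxicity scale were taken at day 14.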

[11] = system: velvetleaf (Abutilon theophrasti, ABUTH); experiment: as above; settings: rated 14 days after application, 0 = no damage, 100 = complete death
Procedure, shortened: as §2

[12] = system: large crabgrass (Digitaria sanguinalis, DIGSA); experiment: as above; settings: rated 14 days after application, 0 = no damage, 100 = complete death
Procedure, shortened: as §2

[13] = system: ivyleaf morningglory (Ipomoea hederacea, IPOHE); experiment: as above; settings: rated 14 days after application, 0 = no damage, 100 = complete death
Procedure, shortened: as §2

[14] = system: johnsongrass (Sorghum halepense, SORHA); experiment: as above; settings: rated 14 days after application, 0 = no damage, 100 = complete death
Procedure, shortened: as §2

[15] = system: sicklepod (Cassia obtusifolia, CASOB); experiment: as above; settings: rated 14 days after application, 0 = no damage, 100 = complete death
Procedure, shortened: as §2

[16] = system: green foxtail (Setaria viridis, SETVI); experiment: as above; settings: rated 14 days after application, 0 = no damage, 100 = complete death
Procedure, shortened: as §2

[17] = system: barnyardgrass (Echinochloa crus-galli, ECHCG); experiment: as above; settings: rated 14 days after application, 0 = no damage, 100 = complete death
Procedure, shortened: as §2

[18] = system: redroot pigweed (Amaranthus retroflexus, AMARE); experiment: as above; settings: rated 14 days after application, 0 = no damage, 100 = complete death
Procedure, shortened: (§3)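 Compounds in acetone were track-sprayed at 15-1000 g ai/ha (187 l/ha) on sandy loam pots: pre-emerge one day after seeding, post-emerge at 2-3 leaf stage with 0.25% v/v non-ionic surfactant. Phytotoxicity was rated 14 days later on a 0 (no damage) to 100 (complete death) scale.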

[19] = system: field corn (Zea mays L., var. Dekalb 535, CORN); experiment: Post-emerge test, crop safety; settings: post-emerge, 14 days after application, rating scale 0-100
Procedure, shortened: (§4)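 Rating: 0–100 visual injury, 14 DAA. Application: acetone, 187 l/ha, 15–1000 g ai/ha, flat-fan track sprayer with nozzle 40–45 cm above soil or canopy. Post-emerge runs used 0.25% v/v surfactant on 2–3 leaf plants.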

[20] = system: upland rice (Oryza sp., var. Tebonnet, RICE); experiment: Post-emerge test, crop safety; settings: post-emerge, 14 days after application, rating scale 0-100
Procedure, shortened: as §4

[21] = system: field corn (Zea mays L., var. Dekalb 535, CORN); experiment: Pre-emerge test, crop safety; settings: rated 14 days after application, 0 = no damage, 100 = complete death
Procedure, shortened: as §3

[22] = system: upland rice (Oryza sp., var. Tebonnet, RICE); experiment: Pre-emerge test, crop safety; settings: rated 14 days after application, 0 = no damage, 100 = complete death
Procedure, shortened: as §3

COc1c(Cl)cc(F)c(-n2c(=O)cc(C(F)(F)F)n(C)c2=O)c1N(C(=O)C=Cc1ccccc1Cl)C(=O)C=Cc1ccccc1Cl [2-83]
phytotoxicity rating CHEAL ([1]; 63 g ai/ha): 20 | phytotoxicity rating CHEAL ([1]; 250 g ai/ha): 50 | phytotoxicity rating ABUTH ([2]; 63 g ai/ha): 50 | phytotoxicity rating ABUTH ([2]; 250 g ai/ha): 70 | phytotoxicity rating DIGSA ([3]; 63 g ai/ha): 0 | phytotoxicity rating DIGSA ([3]; 250 g ai/ha): 0 | phytotoxicity rating IPOHE ([4]; 63 g ai/ha): 10 | phytotoxicity rating IPOHE ([4]; 250 g ai/ha): 20 | phytotoxicity rating AMARE ([5]; 63 g ai/ha): 40 | phytotoxicity rating AMARE ([5]; 250 g ai/ha): 90 | phytotoxicity rating SORHA ([6]; 63 g ai/ha): 0 | phytotoxicity rating SORHA ([6]; 250 g ai/ha): 0 | phytotoxicity rating CASOB ([7]; 63 g ai/ha): 0 | phytotoxicity rating CASOB ([7]; 250 g ai/ha): 0 | phytotoxicity rating SETVI ([8]; 63 g ai/ha): 0 | phytotoxicity rating SETVI ([8]; 250 g ai/ha): 0 | phytotoxicity rating ECHCG ([9]; 63 g ai/ha): 0 | phytotoxicity rating ECHCG ([9]; 250 g ai/ha): 0 | Pre-emerge Herbicidal Activity, phytotoxicity rating (0-100), CHEAL ([10]; 63 g ai/ha): 30 | Pre-emerge Herbicidal Activity, phytotoxicity rating (0-100), CHEAL ([10]; 250 g ai/ha): 90 | Pre-emerge Herbicidal Activity, phytotoxicity rating (0-100), ABUTH ([11]; 63 g ai/ha): 10 | Pre-emerge Herbicidal Activity, phytotoxicity rating (0-100), ABUTH ([11]; 250 g ai/ha): 100 | Pre-emerge Herbicidal Activity, phytotoxicity rating (0-100), DIGSA ([12]; 63 g ai/ha): 0 | Pre-emerge Herbicidal Activity, phytotoxicity rating (0-100), DIGSA ([12]; 250 g ai/ha): 30 | Pre-emerge Herbicidal Activity, phytotoxicity rating (0-100), IPOHE ([13]; 63 g ai/ha): 0 | Pre-emerge Herbicidal Activity, phytotoxicity rating (0-100), IPOHE ([13]; 250 g ai/ha): 0 | Pre-emerge Herbicidal Activity, phytotoxicity rating (0-100), SORHA ([14]; 63 g ai/ha): 0 | Pre-emerge Herbicidal Activity, phytotoxicity rating (0-100), SORHA ([14]; 250 g ai/ha): 20 | Pre-emerge Herbicidal Activity, phytotoxicity rating (0-100), CASOB ([15]; 63 g ai/ha): 0 | Pre-emerge Herbicidal Activity, phytotoxicity rating (0-100), CASOB ([15]; 250 g ai/ha): 0 | Pre-emerge Herbicidal Activity, phytotoxicity rating (0-100), SETVI ([16]; 63 g ai/ha): 0 | Pre-emerge Herbicidal Activity, phytotoxicity rating (0-100), SETVI ([16]; 250 g ai/ha): 40 | Pre-emerge Herbicidal Activity, phytotoxicity rating (0-100), ECHCG ([17]; 63 g ai/ha): 0 | Pre-emerge Herbicidal Activity, phytotoxicity rating (0-100), ECHCG ([17]; 250 g ai/ha): 0 | Pre-emerge Herbicidal Activity, phytotoxicity rating (0-100), AMARE ([18]; 63 g ai/ha): 60 | Pre-emerge Herbicidal Activity, phytotoxicity rating (0-100), AMARE ([18]; 250 g ai/ha): 100 | phytotoxicity rating CORN ([19]; 63 g ai/ha): 0 | phytotoxicity rating CORN ([19]; 250 g ai/ha): 0 | phytotoxicity rating RICE ([20]; 63 g ai/ha): 100 | phytotoxicity rating RICE ([20]; 250 g ai/ha): 0 | Pre-emerge phytotoxicity rating (0-100), crop damage, CORN ([21]; 63 g ai/ha): 0 | Pre-emerge phytotoxicity rating (0-100), crop damage, CORN ([21]; 250 g ai/ha): 0 | Pre-emerge phytotoxicity rating (0-100), crop damage, RICE ([22]; 63 g ai/ha): 0 | Pre-emerge phytotoxicity rating (0-100), crop damage, RICE ([22]; 250 g ai/ha): 0
